In US4228187A, “Alkyl and cycloalkylthiophenylalkylaminoalkanols, their salts and the preparation thereof” (priority 1973, dated 1980):
Entries after “also recorded” stand apart in the source; their conditions may differ. Like-named read-outs stand apart in the source and are kept apart here.

Experiments:
[1] = system: occluding thrombosis of the femoral artery; test: Prevention of arterial thrombosis in dogs; type: in vivo, dog; settings: for n dogs with occluding thrombosis: controls 10 of 16, * α = 0.05; for incidence of occluding thrombosis of the femoral artery (in words): suloctidil 5 times 5 mg/kg i.m., acetylsalicylic acid 5 times 100 mg/kg p.o.
Experimental: In animals, 1-(4-isopropylthiophenyl)-2-n-octylaminopropanol reduces thromboformation in arteries and veins.
Thrombosis was induced in the femoral
artery of anesthetized dogs by a 30 min perfusions, in a
catheterized area of the vessel, of a solution of pronase.
Drugs administrations were made at 24 h intervals, for 5 days
the last dosage being given 30 min before anesthesia.

[2] = system: vasoconstrictions induced by norepinephrine and angiotensine in the femoral circulation; test: Inhibition of vasoconstrictions in the femoral circulation of dogs; parameters: species or system dog; settings: in vivo, FIG. 1: i.a. 10 μg/kg/min, listed as suloctidil
Excerpt: The vasoconstrictions are induced by i.a. norepinephrine (n=10) or angiotensine (n=8) during solvent (C) or drug (T) infusion.
Vertical bars are standard errors of the means and * or *** indicate statistically significant differences from the corresponding control values at the thresholds α=0.05 and 0.001 respectively.

[3] = system: thrombosis of the hepatic veins; test: Prevention of deep veins thrombosis in rats; type: in vivo, rat; settings: for n rats with score 2: control 1; for n rats with score 3: control 2; for n rats with score 1: control 12, * α = 0.05; for n rats with score 0: control 13, ** α = 0.01; for thrombosis of the hepatic veins (in words): rats fed hyperlipidemic diet 3 months, endotoxin
Experimental: (see table VI given below).
Thrombosis in the hepatic veins were in-
duced in rats fed an hyperlipidemic diet for 3 months by i.v.
injection of endotoxin (lipopolysaccharide B from Salmonella
Sulcoctidil was administered into the diet. The importance of the
thrombosis assessed by scoring the subsequent red
hepatic infarcts according to their number and surface.

[4] = system: platelet functions; test: Platelet antiaggregating properties in vitro and in vivo
[5] = system: peripheral and cerebral circulations; test: Blood flow in peripheral and cerebral circulations after i.v. or oral administration; type: in vivo; settings: mice or dogs
[6] = system: experimental type II hyperlipidemia; test: Experimental type II hyperlipidemia in monkeys; type: in vivo, monkey
[7] = Blood viscosity and plasma fibrinogen in geriatric patients (pilot studies); type: in vivo, human; settings: long-term treatment
[8] = system: catecholamines and methylxanthine induced lipolysis; test: Antilipolytic activity in vitro in rat epididymal fat; type: cell-based
[9] = system: BaCl2; test: Antispasmodic activity, BaCl2
[10] = system: spontaneously hypertensive rat; test: Antihypertensive activity (spontaneously hypertensive rat); type: in vivo; settings: 15 mg/kg per os
Experimental: (3) spontaneously hypertensive rat; 15 mg/kg per os;
± reduction of systolic pressure up to 10 mm of Hg
+ reduction of systolic pressure of 10 to 20 mm Hg
++ reduction of systolic pressure of at least 20 mm of Hg

[11] = system: platelets emboli triggered by ADP; test: Platelets emboli triggered by ADP in mice or rats; type: in vivo
Excerpt: Since platelet aggregation is considered to be of paramount importance in thrombus formation, this anti-platelet activity of 1-(4-isopropylthiophenyl)-2-n-octylaminopropanol (suloctidil) is likely to explain its anti-thrombotic properties.

[12] = system: Ac.chol.; test: Antispasmodic activity, Ac.chol.
[13] = Bleeding time in man; type: in vivo, human; settings: repeated administration
Experimental: (§1) After a single oral intake of 200 mg the effect lasts for at least 6 h. Repeated administration of 1-(4-isopropylthiophenyl)-2-n-octylaminopropanol seems to optimalize its anti-platelet activity. […] Moreover, investigations on its mode of action indicate that the mechanism involved are quantitatively and qualitatively different from these of the other known anti-platelet agents.

[14] = system: Hist.; test: Antispasmodic activity, Hist.
[15] = DL50 mouse p.o.; settings: in vivo, po, limits of reliability (p : 0.95) in brackets
Excerpt: (1) the limits of reliability (p : 0.95) are given in brackets.

[16] = system: cholesterol biosynthesis; test: Inhibition of cholesterol biosynthesis in vitro (rat liver); type: cell-based; settings: for inhibition at 100 µM / inhibition at 10 µM: Rattus norvegicus, rat liver, mean; for inhibition at 100 µM: 10^-4 M; for inhibition at 10 µM: 10^-5 M; for inhibition of cholesterol biosynthesis (in words): in vitro
Excerpt: |Inhibition of cholesterol biosynthesis in vitro (rat liver). In- |hibitory effect of suloctidil and clofibrate on the incorpora- |tion of 1-^14 [NT] and 2-^14 C-mevalonate (MVA). |are mean values and range, expressed in % of inhibition. Unless |otherwise stated, n = 3.

[17] = system: guinea pig atria's; test: Protective activity against anoxia (guinea pig atria); parameters: key: scale: + = 10 to 20% increase in survival time; settings: increase in survival time
Excerpt: (5) guinea pig atria's;
+ = increase in survival time of 10 to 20%

[18] = system: peripheral vasodilatatory activity; test: Vasodilatory effect after intraarterial injection in dog; type: in vivo
Experimental: (1) intraarterial injection in dog (5 animals) 10, 20 and 30 μg/kg.
(2) maximum vasodilatory effect in mm of Hg.
(3) and (4) expressed in seconds.

[19] = Prothrombine levels in patients under oral anti-coagulants therapy; type: in vivo, human; settings: 900 mg daily with long-term oral anti-coagulants
Experimental: as §1

[20] = system: lipoproteinlipases; test: Inhibitory effect on lipoproteinlipases; type: biochemical
[21] = system: ADP, L-epinephrine, collagen and Thrombofax induced aggregation; test: Ex-vivo platelet aggregation after oral administration to healthy volunteers; parameters: species or system human
Experimental: as §1

[22] = system: vascular contractile cell; test: Vascular antispasmodic activity: inhibition of induced vasoconstrictions in vitro and in vivo
[23] = AA, read-out: Inhibition of incorporation of 1-^14 C-acetate (AA)
[24] = MVA, read-out: Inhibition of incorporation of 2-^14 C-mevalonate (MVA)

CC(=O)Oc1ccccc1C(=O)O [Acetylsalicylic acid, reference compound]
n dogs with occluding thrombosis ([1]; 5 × 100 mg/kg p.o., n = 10): 1 | incidence of occluding thrombosis of the femoral artery (in words) [1]: also effective in these conditions

CCCCCCCCNC(C)C(O)c1ccc(SC(C)C)cc1 (centres unmarked) [No 2, 1-(4-isopropylthiophenyl)-2-n-octylaminopropanol]
inhibition of vasoconstrictions in the femoral circulation [2]: potent inhibitor of vasoconstrictions; also recorded: more active than standard agents like papaverine and cinnarizine | n rats with score 2 ([3]; 10 mg/kg/day in diet): 0 | n rats with score 3 ([3]; 10 mg/kg/day in diet): 0 | n rats with score 1 ([3]; 10 mg/kg/day in diet): 4 | n rats with score 0 ([3]; 10 mg/kg/day in diet): 25 | n rats with score 2 ([3]; 25 mg/kg/day in diet): 0 | n rats with score 3 ([3]; 25 mg/kg/day in diet): 0 | n rats with score 1 ([3]; 25 mg/kg/day in diet): 5 | n rats with score 0 ([3]; 25 mg/kg/day in diet): 23 | thrombosis of the hepatic veins (in words) [3]: protection is still conferred by a 10 mg/kg oral dose | thrombosis of the hepatic veins (in words) ([3]; listed as suloctidil): markedly less frequent and less developped | platelet antiaggregating properties [4]: potent platelet antiaggregating properties | platelet antiaggregating properties ([4]; listed as suloctidil): platelet anti-aggregating properties | increase in blood flow in peripheral and cerebral circulations [5]: increase in blood flow in both peripheral and cerebral circulations | hypocholesterolemic and normolipoproteinemic effects [6]: hypocholesterolemic and "normolipoproteinemic" effects observed in vivo | plasma fibrinogen levels [7]: parallel reduction of the plasma fibrinogen levels | reduction of blood hyperviscosity ([7]; therapeutic dosage regimen): about 10% | antilipolytic activity [8]: potent antilipolytic activity | Antispasmodic activity CE 100, BaCl2 [9]: 100 μ g γ 60 ml | n dogs with occluding thrombosis ([1]; 5 × 5 mg/kg i.m., n = 16): 3 | incidence of occluding thrombosis of the femoral artery (in words) [1]: significantly lower | Anti-hypertensive activity [10]: 0 | activity compared with acetyl salicyclic acid ([11]; at the same dose): as active as acetyl salicyclic acid | formation of platelets emboli triggered by ADP ([11]; oral, mice or rats): blocked or decreased the formation of platelets emboli triggered by ADP | Antispasmodic activity CE 100, Ac.chol. [12]: 100 μ g γ 60 ml | bleeding time [13]: does not prolong bleeding time in man | Antispasmodic activity CE 100, Hist. [14]: 100 μ g γ 60 ml | LD50 [15]: 3700 mg/kg | inhibition at 100 µM [16, 23]: 49.4% | inhibition at 10 µM [16, 23]: 27.5% | inhibition at 100 µM [16, 24]: 25.9% | inhibition at 10 µM [16, 24]: 9.9% | inhibition of cholesterol biosynthesis (in words) [16]: strong inhibitor of cholesterol biosynthesis; also recorded: more specific than that of standard compounds like clofibrate | inhibition of cholesterol biosynthesis (in words) ([16]; listed as suloctidil): markedly inhibits the biosynthesis of cholesterol | Protective activity against anoxia [17]: 0 | peripheral vasodilatatory activity compared with papaverine [18]: greater degree of activity than papaverine | Amplitude (maximum vasodilatory effect) ([18]; 10 μg/kg): 42 mm of Hg | Duration of effect ([18]; 10 μg/kg): 226 s | Half-life (of vasodilatory effect) ([18]; 10 μg/kg): 1.57 min | Amplitude (maximum vasodilatory effect) ([18]; 20 μg/kg): 59 mm of Hg | Duration of effect ([18]; 20 μg/kg): 299 s | Half-life (of vasodilatory effect) ([18]; 20 μg/kg): 2.32 min | Amplitude (maximum vasodilatory effect) ([18]; 30 μg/kg): 67 mm of Hg | Duration of effect ([18]; 30 μg/kg): 390 s | Half-life (of vasodilatory effect) ([18]; 30 μg/kg): 2.63 min | prothrombine levels [19]: does not markedly decrease prothrombine levels | direct inhibitory effect on lipoproteinlipases [20]: direct inhibitory effect on the activity of different lipoproteinlipases | inhibition of induced platelet aggregation ([21]; ex-vivo, single oral administration, 200 mg or more, healthy volunteers): strongly inhibits ADP, L-epinephrine, collagen and Thrombofax induced aggregation | duration of anti-aggregating effect ([21]; single oral intake of 200 mg): at least 6 h | vascular antispasmodic activity and vasodilating action [22]: potent vascular antispasmodic activity and vasodilating action | inhibition of vasoconstrictions ([22]; in vitro and in vivo, calcium, norepinephrine, 5-hydroxytryptamine and angiotensine): inhibits, in vitro and in vivo, vasocontrictions induced by various agents like calcium, norepinephrine, 5-hydroxytryptamine and angiotensine
